Source: ChEMBL document CHEMBL1201862, “PubChem BioAssay data set” (2004)
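Following 48 hours of exposure in 96-well plates, responses at five concentrations were used to interpolate endpoints linearly. GI50: concentration for 50% inhibition of growth.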 The source made the active and inactive calls. Cut-off read from the data, not from the text of the source: active = GI50 up to about 1.1 µM and inactive = higher.

Assays:
Test in all cases: growth of human tumour cells (NCI), 48 h
786-0 = test system: 786-0
CCRF-CEM = test system: CCRF-CEM
EKVX = test system: EKVX
HCC 2998 = test system: HCC 2998
HCT-116 = test system: HCT-116
HOP-92 = test system: HOP-92
IGROV-1 = test system: IGROV-1
K562 = test system: K562
LOX IMVI = test system: LOX IMVI
MCF7 = test system: MCF7
MDA-MB-231 = test system: MDA-MB-231
NCI-H460 = test system: NCI-H460
NCI/ADR-RES = test system: NCI/ADR-RES
OVCAR-5 = test system: OVCAR-5
SK-MEL-28 = test system: SK-MEL-28
SNB-19 = test system: SNB-19
MDA-N = test system: MDA-N
OVCAR-3 = test system: OVCAR-3
RPMI-8226 = test system: RPMI-8226
RXF 393 = test system: RXF 393

Measured: GI50

CCN1C[C@]2(COC)[C@H](O)C[C@H](OC)[C@]34C1[C@H]([C@H](OC)[C@H]23)[C@]1(OC(C)=O)[C@H]2[C@@H](OC(=O)c3ccccc3)[C@](O)(C[C@H]24)[C@@H](OC)[C@@H]1O
inactive: 786-0 > 100 µM | CCRF-CEM > 100 µM | EKVX > 100 µM | HCC 2998 > 100 µM | HCT-116 > 100 µM | HOP-92 > 100 µM | IGROV-1 > 100 µM | K562 > 100 µM | LOX IMVI > 100 µM | MCF7 > 100 µM | MDA-MB-231 > 100 µM | NCI-H460 > 100 µM | NCI/ADR-RES > 100 µM | OVCAR-5 > 100 µM | SK-MEL-28 > 100 µM | SNB-19 > 100 µM

COc1ccc2oc(=O)c(-c3nc4ccccc4s3)cc2c1
inactive: 786-0 7.82 µM | CCRF-CEM > 38.5 µM | EKVX 19.2 µM | HCC 2998 > 100 µM | HCT-116 11.6 µM | HOP-92 19.7 µM | IGROV-1 12.8 µM | K562 > 100 µM | LOX IMVI 17.8 µM | MDA-MB-231 18.7 µM | MDA-N 20.1 µM | NCI-H460 16.6 µM | NCI/ADR-RES 28.8 µM | OVCAR-3 14.2 µM | OVCAR-5 23 µM | RPMI-8226 > 62.7 µM | RXF 393 12.2 µM | SK-MEL-28 > 59.3 µM | SNB-19 46.7 µM

O=C(O)c1cc(CCc2ccc(O)c(O)c2)ccc1O
inactive: 786-0 > 100 µM | CCRF-CEM > 100 µM | HCC 2998 > 100 µM | HCT-116 > 100 µM | IGROV-1 > 100 µM | K562 21.3 µM | MCF7 > 100 µM | MDA-N 18.4 µM | NCI-H460 > 100 µM | NCI/ADR-RES > 100 µM | OVCAR-3 > 100 µM | OVCAR-5 > 100 µM | SNB-19 > 100 µM

O=[N+]([O-])/C(C(Cl)=C(Cl)Cl)=C(/Nc1cccc2cccnc12)n1nnc2ccccc21
inactive: 786-0 14.3 µM | CCRF-CEM 2.88 µM | EKVX 24.4 µM | HCC 2998 44.1 µM | HCT-116 19.3 µM | K562 6.41 µM | MCF7 19.6 µM | MDA-N 13.9 µM | NCI-H460 31.3 µM | NCI/ADR-RES 21.8 µM | OVCAR-3 8.18 µM | OVCAR-5 21.6 µM | RPMI-8226 24.5 µM | SK-MEL-28 18.4 µM | SNB-19 16.9 µM

CC[C@H](NC(=O)OC(C)(C)C)C(=O)NCP(=O)(OCc1ccc([N+](=O)[O-])cc1)OCc1ccc([N+](=O)[O-])cc1
inactive: 786-0 92.9 µM | CCRF-CEM 21.6 µM | HCC 2998 36.2 µM | HCT-116 27.7 µM | HOP-92 31.5 µM | IGROV-1 38.5 µM | LOX IMVI 32.4 µM | MCF7 48.9 µM | MDA-MB-231 26.4 µM | MDA-N 28.6 µM | NCI-H460 27.8 µM | NCI/ADR-RES 33.1 µM | OVCAR-3 11 µM | OVCAR-5 48.2 µM | RPMI-8226 27.7 µM | SK-MEL-28 28.4 µM | SNB-19 43.1 µM

C=C(C)CC1(O)C(=O)C(OCC)=C1OCC (stereo unspecified)
inactive: 786-0 > 100 µM | CCRF-CEM > 100 µM | EKVX > 100 µM | HCT-116 > 100 µM | HOP-92 48.6 µM | IGROV-1 > 100 µM | LOX IMVI > 100 µM | MCF7 > 100 µM | MDA-MB-231 > 100 µM | MDA-N > 100 µM | NCI-H460 > 100 µM | NCI/ADR-RES > 100 µM | OVCAR-3 > 100 µM | OVCAR-5 > 100 µM | SK-MEL-28 > 100 µM | SNB-19 > 100 µM

O=C(CSc1nccc(=O)[nH]1)c1ccccc1
inactive: 786-0 > 100 µM | EKVX > 100 µM | HCT-116 > 100 µM | HOP-92 > 100 µM | IGROV-1 > 100 µM | K562 > 100 µM | LOX IMVI 78.3 µM | MCF7 91 µM | MDA-MB-231 61.5 µM | NCI-H460 80.5 µM | NCI/ADR-RES 37.2 µM | OVCAR-3 40.7 µM | OVCAR-5 > 100 µM | RXF 393 > 100 µM | SK-MEL-28 > 100 µM | SNB-19 > 100 µM

COc1ccc(-c2c(C(=O)Nc3ccccc3)c(-c3ccccc3)n(C3OC(CO)C(O)C(O)C3O)c(=S)c2C#N)cc1 (stereo unspecified)
inactive: 786-0 > 100 µM | CCRF-CEM > 100 µM | EKVX > 100 µM | HCC 2998 > 100 µM | HCT-116 > 100 µM | HOP-92 > 100 µM | IGROV-1 > 100 µM | K562 > 100 µM | LOX IMVI > 100 µM | MCF7 > 100 µM | MDA-N > 100 µM | NCI-H460 > 100 µM | NCI/ADR-RES > 100 µM | OVCAR-3 > 100 µM | OVCAR-5 > 100 µM | RPMI-8226 > 100 µM | RXF 393 > 100 µM | SK-MEL-28 > 100 µM | SNB-19 > 100 µM
